Several values for one entry are separate records, joined by “and”; a condition that tells them apart may be missing. Equal values may be shown once.
Experiments:
[1] = Inhibition of Escherichia coli UPPS
[2] = Inhibition of Escherichia coli OPPS
[3] = Inhibition of Sulfolobus solfataricus HPPS; set-up: species or system Saccharolobus solfataricus

| Structure (SMILES) | IC50 [1] | IC50 [2] [nM] | IC50 [3] [nM] |
| --- | --- | --- | --- |
| O=P([O-])(O)C(O)(C[n+]1cccc(-c2ccccc2)c1)P(=O)(O)O (configuration not stated) | 48 µM |  |  |
| O=P([O-])(O)C(O)(C[n+]1cccc(F)c1)P(=O)(O)O (configuration not stated) | 490 µM |  |  |
| O=P(O)(O)C(O)(Cc1cccc(-c2cccc(-c3ccccc3)c2)c1)P(=O)(O)O |  | 430 | 460 |
| O=P([O-])(O)C(C[n+]1cccc(-c2ccccc2-c2ccccc2)c1)P(=O)(O)O (configuration not stated) | 120 µM |  |  |
| O=P(O)(O)C(O)(Cc1cccc(-c2cccc(NS(=O)(=O)c3ccc4ccccc4c3)c2)c1)P(=O)(O)O |  | 5400 | 420 |
| O=P(O)(O)C1(P(=O)(O)O)CC(c2ccc(Cl)c(Cl)c2)=NO1 | 87 µM |  |  |
| O=P(O)(O)C(O)(COc1cccc(-c2cccc(-c3ccccc3)c2)c1)P(=O)(O)O |  | 75 | 360000 |
| O=P(O)(O)C(O)(Cc1cccc(-c2ccc(-c3ccccc3)cc2)c1)P(=O)(O)O |  | 870000 | 2700 |
| CC(C)=CCC/C(C)=C/Cc1ccc[n+](CC(P(=O)([O-])O)P(=O)(O)O)c1 (configuration not stated) | 89 µM |  |  |
| O=P([O-])(O)C(C[n+]1cccc(-c2cccc(-c3ccccc3)c2)c1)P(=O)(O)O (configuration not stated) | 68 µM and 21 µM |  |  |
| O=P(O)(O)C(O)(Cc1cccc(-c2cccc3c2oc2ccccc23)c1)P(=O)(O)O |  | 32000 | 1200 |
| O=P(O)(O)C(O)(Cc1ccccc1)P(=O)(O)O | 200 µM |  |  |
| O=P(O)(O)C(CCCc1ccc(-c2ccccc2)cc1)P(=O)(O)O | 69 µM |  |  |
| O=P(O)(O)C(O)(Cc1cnc2ccccn12)P(=O)(O)O [MINODRONIC ACID] |  | 2100 | 50 |
| O=P(O)(O)C(O)(Cc1cccnc1)P(=O)(O)O [RISEDRONIC ACID] | 660 µM | 38 | 90 |
| O=P(O)(O)C(O)(Cn1ccnc1)P(=O)(O)O [ZOLEDRONIC ACID] |  | 38 | 90 |

Second part, the compound after the results:

| IC50 [1] | IC50 [2] [nM] | IC50 [3] [nM] | Structure (SMILES) |
| --- | --- | --- | --- |
| 3.1 µM |  |  | O=P(O)(O)C(O)(CCc1cccc(-c2ccccc2-c2ccccc2)c1)P(=O)(O)O |
| 10 µM |  |  | O=P(O)(O)C(O)(CCc1cccc(-c2ccc(-c3ccccc3)cc2)c1)P(=O)(O)O |
| 1.8 µM |  |  | O=P(O)(O)C(O)(c1cccc(-c2cccc(-c3ccccc3)c2)c1)P(=O)(O)O |
| 2 µM |  |  | O=P(O)(O)C(O)(Cc1ccc(-c2ccc(-c3ccccc3)cc2)cc1)P(=O)(O)O |
| 12 µM |  |  | O=P(O)(O)C(O)(CCc1ccc(-c2cccc3c2oc2ccccc23)cc1)P(=O)(O)O |
| 6.8 µM |  |  | O=P(O)(O)C(O)(Cc1cccc(-c2ccccc2)c1)P(=O)(O)O |
| 5.5 µM |  |  | O=P(O)(O)C(O)(CCc1cccc(-c2cccc(-c3ccccc3)c2)c1)P(=O)(O)O |
| 1 µM |  |  | O=P(O)(O)C(O)(Cc1ccc(-c2cccc(-c3ccccc3)c2)cc1)P(=O)(O)O |
| 28 µM |  |  | O=P([O-])(O)C(C[n+]1ccc(-c2ccc(-c3ccccc3)cc2)cc1)P(=O)(O)O (configuration not stated) |
| 35 µM |  |  | O=P([O-])(O)C(C[n+]1cccc(-c2ccc(-c3ccccc3)cc2)c1)P(=O)(O)O (configuration not stated) |
| 13 µM |  |  | O=P([O-])(O)C(O)(C[n+]1ccc(-c2cccc3c2oc2ccccc23)cc1)P(=O)(O)O (configuration not stated) |
| 34 µM |  |  | O=P([O-])(O)C(C[n+]1cccc(-c2cccc3c2oc2ccccc23)c1)P(=O)(O)O (configuration not stated) |
